Laboratory results reported in US8552002B2 (Novartis AG, priority 2004, dated 2013).
Where two headings read alike, the source gives them in different places.

Legend:
Assay type in all cases: biochemical
c-Abl = c-Abl (Homo sapiens, UniProt P00519); assay: Inhibitory activity against c-Abl (Example 207); details: Examples 171 to 206
KDR = biological target: T1, KDR (Homo sapiens, UniProt P35968); assay: Inhibitory activity against KDR (VEGF-R2), in vitro data of Examples 170 and 207; details: 10 μM, read-out: KDR inhibition at 10 μM
T1 construct: expressed in transfected cells; host or cells: CHO cells
Outline: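 KDR tyrosine phosphorylation detected by luminescence after overnight 4° C capture of 20 μg lysate protein with PY20:AP antibody. Lysates came from cells given compound for 2 h at 37° C, then final 20 ng/ml VEGF for 5 min; compound-free medium as control.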

FGFR3 (K650E) = biological target: T2, FGFR3 (K650E) (Homo sapiens, UniProt P22607, K650E); assay: Recombinant GST-FGFR-3-K650E tyrosine kinase assay (33P into poly(Glu,Tyr)); details: 10 μM
T2 construct: amino acids 411-806 of the cytoplasmic domain of human FGFR-3, N-terminally fused to GST; made in house; host or cells: Sf9 insect cells (baculovirus)

Tek = biological target: T3, Tek (Homo sapiens, UniProt Q02763); assay: Recombinant GST-Tek (Tie-2) tyrosine kinase assay (33P into poly(Glu,Tyr)); details: Examples 1 to 169
T3 construct: amino acids 773-1124 of the cytoplasmic kinase domain of human Tek, N-terminally fused to GST; made in house; host or cells: Sf9 insect cells (baculovirus)
Outline: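 GST-fused human Tek kinase domain (aa 773-1124), baculovirus-expressed, 150 ng per reaction; 10 μg/mL poly(Glu,Tyr) 4:1, 4.0 μM [γ-33P]ATP, 3 mM MnCl2/3 mM MgCl2, pH 7.5, 30 min at ambient temperature. 33P uptake read on PVDF filters; IC50 by linear regression from four concentrations in duplicate.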

[1] = Examples 171 to 206, read-out: FGFR3 inhibition at 10 μM
[2] = Examples 1 to 169, read-out: FGFR3 (K650E) inhibition at 10 μM

T2 sequence (P22607 411-806 K650E): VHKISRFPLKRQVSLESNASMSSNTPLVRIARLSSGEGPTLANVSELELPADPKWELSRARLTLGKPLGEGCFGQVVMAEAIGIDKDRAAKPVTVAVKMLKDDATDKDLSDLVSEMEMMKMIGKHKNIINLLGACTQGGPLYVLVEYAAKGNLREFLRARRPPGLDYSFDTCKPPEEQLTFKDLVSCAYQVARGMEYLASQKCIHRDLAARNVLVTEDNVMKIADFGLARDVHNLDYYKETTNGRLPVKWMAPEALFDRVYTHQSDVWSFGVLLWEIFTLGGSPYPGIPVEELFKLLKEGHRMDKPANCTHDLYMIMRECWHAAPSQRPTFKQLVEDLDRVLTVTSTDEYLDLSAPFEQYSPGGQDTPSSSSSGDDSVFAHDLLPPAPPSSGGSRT
T1 sequence (P35968 20-1356): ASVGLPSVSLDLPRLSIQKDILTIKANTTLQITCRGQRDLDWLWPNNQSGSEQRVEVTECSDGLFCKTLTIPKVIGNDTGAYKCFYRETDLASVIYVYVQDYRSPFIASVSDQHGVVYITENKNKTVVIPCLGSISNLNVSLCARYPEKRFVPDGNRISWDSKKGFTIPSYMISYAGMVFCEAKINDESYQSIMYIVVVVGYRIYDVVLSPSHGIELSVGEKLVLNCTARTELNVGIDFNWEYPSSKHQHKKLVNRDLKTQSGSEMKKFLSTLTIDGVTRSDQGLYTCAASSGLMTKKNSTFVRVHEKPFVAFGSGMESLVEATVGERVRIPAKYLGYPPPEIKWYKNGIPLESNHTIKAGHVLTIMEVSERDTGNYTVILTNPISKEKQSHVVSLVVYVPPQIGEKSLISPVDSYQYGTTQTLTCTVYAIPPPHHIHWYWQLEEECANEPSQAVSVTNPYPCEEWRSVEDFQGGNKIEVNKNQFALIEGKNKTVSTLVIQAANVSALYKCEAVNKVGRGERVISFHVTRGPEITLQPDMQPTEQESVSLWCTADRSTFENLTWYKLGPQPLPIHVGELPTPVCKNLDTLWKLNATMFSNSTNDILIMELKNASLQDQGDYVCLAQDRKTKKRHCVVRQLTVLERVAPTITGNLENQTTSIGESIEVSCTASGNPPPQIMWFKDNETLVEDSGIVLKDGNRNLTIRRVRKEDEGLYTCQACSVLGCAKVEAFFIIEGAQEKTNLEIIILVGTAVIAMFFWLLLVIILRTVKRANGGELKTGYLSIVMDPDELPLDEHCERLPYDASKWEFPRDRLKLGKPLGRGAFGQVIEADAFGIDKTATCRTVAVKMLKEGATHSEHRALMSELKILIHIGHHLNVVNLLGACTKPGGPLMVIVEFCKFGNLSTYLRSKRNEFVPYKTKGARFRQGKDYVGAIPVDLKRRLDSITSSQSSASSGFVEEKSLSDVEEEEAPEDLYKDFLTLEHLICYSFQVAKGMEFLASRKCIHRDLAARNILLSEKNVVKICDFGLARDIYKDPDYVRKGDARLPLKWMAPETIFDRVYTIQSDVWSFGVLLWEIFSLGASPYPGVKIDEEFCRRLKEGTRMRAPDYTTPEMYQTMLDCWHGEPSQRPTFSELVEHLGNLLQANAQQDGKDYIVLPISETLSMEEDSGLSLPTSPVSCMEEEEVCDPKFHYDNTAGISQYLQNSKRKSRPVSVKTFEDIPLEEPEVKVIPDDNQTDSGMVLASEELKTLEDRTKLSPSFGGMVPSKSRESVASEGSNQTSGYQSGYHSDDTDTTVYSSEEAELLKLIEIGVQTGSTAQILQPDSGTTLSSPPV
T3 sequence (Q02763 773-1124): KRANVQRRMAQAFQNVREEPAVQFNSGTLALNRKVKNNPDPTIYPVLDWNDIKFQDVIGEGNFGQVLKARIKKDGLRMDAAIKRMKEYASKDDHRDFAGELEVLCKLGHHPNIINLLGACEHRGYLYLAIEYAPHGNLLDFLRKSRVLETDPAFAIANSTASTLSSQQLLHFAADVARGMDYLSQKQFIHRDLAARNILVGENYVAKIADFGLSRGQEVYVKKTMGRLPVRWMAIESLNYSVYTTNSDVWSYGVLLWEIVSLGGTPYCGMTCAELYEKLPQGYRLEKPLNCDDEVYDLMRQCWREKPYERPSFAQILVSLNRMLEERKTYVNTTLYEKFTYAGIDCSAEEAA
Chain of c-Abl (P00519 whole entry): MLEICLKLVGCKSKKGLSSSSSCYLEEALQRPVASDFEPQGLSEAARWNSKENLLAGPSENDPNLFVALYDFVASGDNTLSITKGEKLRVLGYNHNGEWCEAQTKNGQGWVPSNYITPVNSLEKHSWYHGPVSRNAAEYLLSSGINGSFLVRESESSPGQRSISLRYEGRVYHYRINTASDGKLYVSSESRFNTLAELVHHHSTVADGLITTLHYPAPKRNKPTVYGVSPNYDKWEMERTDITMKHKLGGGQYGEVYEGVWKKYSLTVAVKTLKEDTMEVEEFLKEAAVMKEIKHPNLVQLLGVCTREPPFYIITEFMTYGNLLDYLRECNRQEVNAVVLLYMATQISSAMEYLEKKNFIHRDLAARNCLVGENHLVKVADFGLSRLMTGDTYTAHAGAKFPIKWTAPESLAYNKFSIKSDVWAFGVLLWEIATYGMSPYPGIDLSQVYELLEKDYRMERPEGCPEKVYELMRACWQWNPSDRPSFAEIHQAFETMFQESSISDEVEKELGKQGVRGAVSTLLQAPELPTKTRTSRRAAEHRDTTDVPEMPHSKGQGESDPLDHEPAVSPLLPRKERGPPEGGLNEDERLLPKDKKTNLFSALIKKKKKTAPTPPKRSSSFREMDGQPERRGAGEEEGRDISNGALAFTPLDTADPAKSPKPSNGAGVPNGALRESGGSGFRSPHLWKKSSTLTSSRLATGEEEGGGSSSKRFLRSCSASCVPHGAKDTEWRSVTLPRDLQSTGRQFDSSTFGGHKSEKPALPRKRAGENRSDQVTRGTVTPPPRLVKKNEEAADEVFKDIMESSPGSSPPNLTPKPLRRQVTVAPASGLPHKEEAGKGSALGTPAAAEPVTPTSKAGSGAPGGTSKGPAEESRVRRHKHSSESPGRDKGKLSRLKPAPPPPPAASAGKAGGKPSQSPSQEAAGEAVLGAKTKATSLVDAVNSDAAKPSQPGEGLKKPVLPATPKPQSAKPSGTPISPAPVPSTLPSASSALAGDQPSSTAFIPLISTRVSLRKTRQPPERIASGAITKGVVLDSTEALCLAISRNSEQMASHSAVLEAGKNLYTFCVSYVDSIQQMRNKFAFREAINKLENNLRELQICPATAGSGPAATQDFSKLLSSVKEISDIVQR

SMILES	inhibition at 10 µM (c-Abl) [%]	inhibition at 10 µM (KDR; Examples 171 to 206) [%]	inhibition at 10 µM (FGFR3 (K650E); [1]) [%]	inhibition at 10 µM (KDR; Examples 1 to 169) [%]	inhibition at 10 µM (FGFR3 (K650E); [2]) [%]	inhibition at 10 µM (Tek) [%]
CCN(CC)CCOc1ccc(Nc2cc(N(C)C(=O)Nc3cc(OC)cc(OC)c3Cl)ncn2)cc1 [Example 53, 3-(2-Chloro-3,5-dimethoxy-Phenyl)-1-{6-[4-(2-diethylamino-ethoxy)-phenylamino]-pyrimidin-4-yl}-1-methyl-urea]	–	–	–	67 to 100	27 to 100	12 to 100
COc1ccc(OC)c(NC(=O)Nc2cc(Nc3cccc(N4CCN(C)CC4)c3)ncn2)c1 [Example 13, 1-(2,5-Dimethoxy-phenyl)-3-{6-[3-(4-methyl-piperazin-1-yl)-phenyl-amino]-pyrimidin-4-yl}-urea]	–	–	–	67 to 100	27 to 100	12 to 100
COc1ccc(NC(=O)Nc2cc(Nc3cccc(N4CCN(C)CC4)c3)ncn2)cc1Cl [Example 25, 1-(3-Chloro-4-methoxy-phenyl)-3-{6-[3-(4-methyl-piperazin-1-yl)-phenyl-amino]-pyrimidin-4-yl}-urea]	–	–	–	67 to 100	27 to 100	12 to 100
CN(C)c1cccc(Nc2cc(NC(=O)Nc3c(F)cccc3F)ncn2)c1 [Example 106, 1-(2,6-Difluoro-phenyl)-3-[6-(3-dimethylamino-phenylamino)-pyrimidin-4-yl]-urea]	–	–	–	67 to 100	27 to 100	12 to 100
COc1ccc(Nc2cc(NC(=O)Nc3c(Cl)cccc3Cl)ncn2)cn1 [Example 112, 1-(2,6-Dichloro-phenyl)-3-[6-(6-methoxy-pyridin-3-ylamino)-pyrimidin-4-yl]-urea]	–	–	–	67 to 100	27 to 100	12 to 100
COc1cccc(NC(=O)Nc2cc(Nc3ccc(N4CCN(C)CC4)cc3)ncn2)c1 [Example 8, 1-(3-Methoxy-phenyl)-3-{6-[4-(4-methyl-piperazin-1-yl)-phenylamino]-py-rimidin-4-yl}-urea]	–	–	–	67 to 100	27 to 100	12 to 100
CN(C(=O)Nc1c(Cl)cccc1Cl)c1cc(Nc2cccc(C(F)(F)F)c2)ncn1 [Example 113, 3-(2,6-Dichloro-phenyl)-1-methyl-1-[6-(3-trifluoromethyl-phenylamino)-pyrimidin-4-yl]-urea]	–	–	–	67 to 100	27 to 100	12 to 100
COc1ccc(NC(=O)Nc2cc(Nc3cccc(N4CCN(C)CC4)c3)ncn2)cc1OC [Example 31, 1-(3,4-Dimethoxy-Phenyl)-3-{6-[3-(4-methyl-piperazin-1-yl)-phenyl-amino]-pyrimidin-4-yl}-urea]	–	–	–	67 to 100	27 to 100	12 to 100
O=C(Nc1cc(Nc2ccc(F)cc2)ncn1)Nc1c(Cl)cccc1Cl [Example 115, 1-(2,6-Dichloro-phenyl)-3-[6-(4-fluoro-phenylamino)-pyrimidin-4-yl]-urea]	–	–	–	67 to 100	27 to 100	12 to 100
COc1ccc(Cl)c(NC(=O)N(C)c2cc(Nc3ccc(CN4CCN(C)CC4)cc3)ncn2)c1Cl [Example 62, 3-(2,6-Dichloro-3-methoxy-phenyl)-1-methyl-1-{6-[4-(4-methyl-piperazin-1-ylmethyl)-phenylamino]-pyrimidin-4-yl}-urea]	–	–	–	67 to 100	27 to 100	12 to 100
CCN(CC)CCCOc1ccc(Nc2cc(NC(=O)Nc3ccccc3Cl)ncn2)cc1 [Example 102, 1-(2-Chloro-phenyl)-3-{6-[4-(3-diethylamino-propoxy)-phenylamino]-pyrimidin-4-yl}-urea]	–	–	–	67 to 100	27 to 100	12 to 100

The next lines start with the values.

inhibition at 10 µM (c-Abl) [%]	inhibition at 10 µM (KDR; Examples 171 to 206) [%]	inhibition at 10 µM (FGFR3 (K650E); [1]) [%]	inhibition at 10 µM (KDR; Examples 1 to 169) [%]	inhibition at 10 µM (FGFR3 (K650E); [2]) [%]	inhibition at 10 µM (Tek) [%]	SMILES
79 to 100	87 to 100	56 to 98	–	–	–	Cc1ccc(NC(=O)c2cccc(C(F)(F)F)c2)cc1NC(=O)Nc1cc(Nc2cccc(N3CCN(C)CC3)c2)ncn1 [Example 175, N-[4-Methyl-3-(3-{6-[3-(4-methyl-piperazin-1-yl)-phenylamino]-pyrimidin-4-yl}-ureido)-phenyl]-3-trifluoromethyl-benzamide]
79 to 100	87 to 100	56 to 98	–	–	–	Cc1ccc(NC(=O)c2cccc(C(F)(F)F)c2)cc1NC(=O)Nc1cc(Nc2ccccc2)ncn1 [Example 173, N-{4-Methyl-3-[3-(6-phenylamino-pyrimidin-4-yl)-ureido]-phenyl}-3-trifluoromethyl-benzamide]
79 to 100	87 to 100	56 to 98	–	–	–	Cc1ccc(NC(=O)c2cccc(C(F)(F)F)c2)cc1NC(=O)Nc1cc(Nc2ccc(OCCN3CCOCC3)cc2)ncn1 [Example 179, N-[4-Methyl-3-(3-{6-[4-(2-morpholin-4-yl-ethoxy)-phenylamino]-pyrimidin-4-yl}-ureido)-phenyl]-3-trifluoromethyl-benzamide]
79 to 100	87 to 100	56 to 98	–	–	–	CCN(C(=O)Nc1cc(NC(=O)c2cccc(C(F)(F)F)c2)ccc1C)c1cc(Nc2ccc(N3CCN(C)CC3)cc2)ncn1 [Example 192, N-[3-(3-Ethyl-3-{6-[4-(4-methyl-piperazin-1-yl)-phenylamino]-pyrimidin-4-yl}-ureido)-4-methyl-Phenyl]-3-trifluoromethyl-benzamide]
79 to 100	87 to 100	56 to 98	–	–	–	Cc1ccc(C(=O)Nc2cccc(C(F)(F)F)c2)cc1NC(=O)N(C)c1cc(Nc2ccc(N3CCN(C)CC3)cc2)ncn1 [Example 186, 4-Methyl-3-(3-methyl-3-{6-[4-(4-methyl-piperazin-1-yl)-phenylamino]-pyrimidin-4-yl}-ureido)-N-(3-trifluoromethyl-phenyl)-benzamide]
79 to 100	87 to 100	56 to 98	–	–	–	Cc1ccc(NC(=O)c2cccc(C(F)(F)F)c2)cc1NC(=O)N(C)c1cc(Nc2cccc(N3CCN(C)CC3)c2)ncn1 [Example 188, N-[4-Methyl-3-(3-methyl-3-{6-[3-(4-methyl-piperazin-1-yl)-phenylamino]-pyrimidin-4-yl}-ureido)-phenyl]-3-trifluoromethyl-benzamide]
79 to 100	87 to 100	56 to 98	–	–	–	Cc1ccc(NC(=O)c2cccc(C(F)(F)F)c2)cc1NC(=O)Nc1cc(Nc2ccc(OCCCN(C)C)cc2)ncn1 [Example 177, N-[3-(3-{6-[4-(3-Dimethylamino-propoxy)-phenylamino]-pyrimidin-4-yl}-ureido)-4-methyl-phenyl]-3-trifluoromethyl-benzamide]
79 to 100	87 to 100	56 to 98	–	–	–	COc1ccc(N)cc1NC(=O)N(C)c1cc(Nc2ccc(N3CCN(C)CC3)cc2)ncn1 [Example 196, 3-(5-Amino-2-methoxy-phenyl)-1-methyl-1-{6-[4-(4-methyl-piperazin-1-yl)-phenylamino]-pyrimidin-4-yl}-urea]
–	–	–	67 to 100	27 to 100	12 to 100	COc1cc(OC)c(Cl)c(NC(=O)Nc2cc(Nc3ccc(CN(C)C)c(C(F)(F)F)c3)ncn2)c1Cl [Example 159, 1-(2,6-Dichloro-3,5-dimethoxy-phenyl)-3-[6-(4-dimethylaminomethyl-3-trifluoromethyl-phenylamino)-pyrimidin-4-yl]-urea]
–	–	–	67 to 100	27 to 100	12 to 100	CN(C(=O)Nc1c(Cl)cccc1Cl)c1cc(Nc2ccc(F)cc2F)ncn1 [Example 118, 3-(2,6-Dichloro-phenyl)-1-[6-(2,4-difluoro-phenylamino)-pyrimidin-4-yl]-1-methyl-urea]
–	–	–	67 to 100	27 to 100	12 to 100	CN(C(=O)Nc1cccc(C(F)(F)F)c1)c1cc(Nc2ccc(F)cc2)ncn1 [Example 121, 1-[6-(4-Fluoro-phenylamino)-pyrimidin-4-yl]-1-methyl-3-(3-trifluoro-methyl-phenyl)-urea]
–	–	–	67 to 100	27 to 100	12 to 100	COc1cc(OC)c(Cl)c(NC(=O)N(C)c2cc(Nc3ccc(OCCCN4CCN(C)CC4)cc3)ncn2)c1Cl [Example 146, 3-(2,6-Dichloro-3,5-dimethoxy-phenyl)-1-methyl-1-(6-{4-[3-(4-methyl-piperazin-1-yl)-propoxy]-phenylamino}-pyrimidin-4-yl)-urea]
–	–	–	67 to 100	27 to 100	12 to 100	COc1cc(OC)c(Cl)c(NC(=O)Nc2cc(Nc3ccc(OCCN4CCN(C)CC4)cc3)ncn2)c1Cl [Example 158, 1-(2,6-Dichloro-3,5-dimethoxy-phenyl)-3-(6-{4-[2-(4-methyl-piperazin-1-yl)-ethoxy]-phenylamino}-pyrimidin-4-yl)-urea]
